Experimental data reported in patent US6150414A, “Compositions and methods for treating viral infections” (priority 1992, dated 2000).
“And” between values parts separate entries of the source, which are not always exact repeats. Equal entries are not always repeated. Where two headings read alike, the source gives them in different places.

Assays:
retroviruses (virions) = test: Direct inactivation of retroviruses (virions) in vitro (Example 10); format: biochemical, Radiation Leukemia Virus; settings: Table IX
Protocol: (§1) Supernatants (10 ml/tube) from B10.T(6R) cells (Meruelo et al. J. Exp. Med. 147: 470-487, 1978) chronically infected with Radiation Leukemia Virus (RadLV) were obtained by centrifugation of cells in culture at 4° C., 3500 rpm for 15 minutes. The top 2/3 of the supernatant were removed and aliquots were incubated for 30 minutes on ice with the indicated amounts of hypericin or protohypericin. […] Thereafter, supernatants were centrifuged at 100,000×g using a TI70 rotor (Beckman Instruments) for 1 hour at 4° C. The pellet was […] and analyzed for reverse transcriptase activity as follows.
(§2) The reverse transcriptase assay was performed in a volume of 100 microliters containing the following components:
(1) Direct inactivation of retroviruses in vitro, performed as in Example 3 above;
(§3) The results presented above in Table IX are presented as EC50 concentrations. These are the effective concentrations which inhibit 50% of the viruses in micromolar concentrations.

[1] = target: T1, Radiation Leukemia Virus reverse transcriptase (Radiation murine leukemia virus, UniProt P11227); test: Radiation Leukemia Virus reverse transcriptase assay, supernatants from infected AQR cells (Examples 4 and 9); format: biochemical; settings: for CPM: replicate
T1 construct: the reverse transcriptase of Radiation Leukemia Virus; endogenous in cells
Protocol: as §1, §2
The antiviral activity of HHA was tested using AQR (Bach and Meruelo, J. Exp. Med. 160:270-285, 1984) cells chronically infected with Radiation Leukemia Virus in the reverse transcriptase assay as described in Example 3 above.
The assays were conducted using the same procedure as in Example 3 above, using supernatants from infected AQR cells.

Friend Virus = test: Friend Virus-induced splenomegaly, WIS compounds (Example 8); format: in vivo, mice; settings: Table VII; for Actual Spleen Weight: single animal
Protocol: (§4) The effects of compositions according to the present invention on the increase in spleen size (splenomegaly) of BALB/c mice (Jackson Labs, Bar Harbor, ME) was examined. In these experiments, the virus (10^6 focus forming units--FFU) was inoculated intravenously and 100 micrograms of the compounds indicated in Table II were administered to the mice intraperitoneally 24 hours later. Each compound was administered once to two mice. The animals were sacrificed ten days later and their spleens weighed.
(§5) As used in Table II (and subsequent Tables of this Example l(a) and (b), "average percent inhibition" is calculated as follows: [formula] wherein "ASWNC" designates "average spleen weight of negative control"; "ASWE" designates "average spleen weight of experimental (treated) subject"; and "ASWPC" designates "average spleen weight of positive control". Average spleen weight is the numerical average of spleen weights of each experimental group (in Table II each such group includes two members).
The AAB compounds whose synthesis is described above were assayed for antiviral activity. WIS-2, -3, -4, -5 and -6 were tested to determine their biological effects on Friend Virus-induced splenomegaly using the procedure and technique set forth in Example 1 above. The assay results (three mice per group were tested each at different concentrationss of the active composition except for the PBS-negative control wherein two animals per group were used) are reported in Table VII below.

Friend Leukemia Virus [2] = test: In vivo inhibition of Friend Leukemia Virus splenomegaly, intravenous 1-2 hours post infection (Example 10); design: species or system mice; settings: Mus musculus, read-out: EC50 for FV-induced splenomegaly
Protocol: (3) In vivo inhibition of Friend Leukemia Virus Splenomegaly performed as described in Example 1 above except that the compounds were administered intravenously 1-2 hours post infection.
as §3

Friend Leukemia Virus [3] = test: Inhibition of Friend Leukemia Virus-induced splenomegaly in mice, compounds intraperitoneally 24 hours after virus (Example 1(a)); format: in vivo, BALB/c mice; settings: Table III
Source text: The effects of compositions according to the present invention on infection of mammals with Friend Leukemia Virus (FV) were examined.
Friend Leukemia Virus is an aggressive retrovirus which induces an acute erythroleukemia in sensitive strains of mice such as BALB/c and NIH swiss mice as described in Friend, C. J., Exp. Med. 105: 307-324, 1957; Friend, C. et al. Proc. Natl. Acad. Sci. USA 68: 378-383, 1971; Friend, C. et al. Natl. Cancer Inst. Mongr. 22: 508-552, 1966. The malignant transformation is the result of the combined activities of the Spleen Focus Forming Virus (SFFV) and the ecotropic Murine Friend Leukemia Helper Virus (F-MuLV). The acute erythroleukemia is characterized by hepatosplenomegaly (a marked increase in the size of the spleen and liver) and a severe anemia.
Friend Leukemia Virus was prepared by homogenizing the enlarged spleen of a mouse previously infected with FV, 10 days after intravenous virus injection. The spleen was homogenized in phosphate buffered saline in a volume equal to ten times the weight of the isolated spleen.
as §4
The present assay has been developed from similar assays using hypericin or pseudohypericin and employing higher numbers of experimental animals per group (e.g. 4 animals). It was discovered however that the specificity and sensitivity of this assay are such that an experimental group of two animals is of more than adequate predictive value.
as §5
In these experiments, the virus (10^6 focus forming units--FFU) was inoculated intravenously, and the indicated doses of the antiviral compounds of this invention were administered to the BALB/c mice intraperitoneally 24 hours later. The animals were then sacrificed ten days later and their spleens weighed.
Pseudohypericin was diluted in phosphate buffered saline with 1% ethanol.
An expanded series of experiments was next performed in which various concentrations (i.e. 50, 100, 200 and 2×100, i.e., 100 micrograms administered twice) of a different set of PAC compounds (numbers 16-29 and 30-36 in Table III below) were administered intraperitoneally each according to the same protocol described above. Compounds 16-29 all had 3-5 fused, aromatic rings and no side groups except for oxygen or hydroxyl groups, whereas compounds 30-36 all had 3 fused aromatic rings and side chains selected from the group of oxygen, hydroxyl and methyl.
When 2 doses of the compounds were given, the second dose was administered 24-48 hours after the first injection. The animals were infected and splenomegaly determined as above for the compounds in Table II. In Table III, "pooled average percent inhibition" is calculated by adding the average percent inhibition for each experiment with the same compound and dividing the sum by the number of experiments (i.e. the number 4). […]

## CC(=O)Oc1cc(O)c2c(=O)c3c(O)cc(C)c4c5c(C)cc(O)c6c(=O)c7c(O)cc(OC(C)=O)c8c1c2c(c34)c(c65)c78 [WIS-6, hypericin diacetate]
Retroviruses (virions)
  EC50: 0.85 µM
[1]; 0.05 micrograms, Table VIII
  Average CPM: 190,506 CPM
  CPM: 195,374 CPM and 185,638 CPM
[1]; 0.1 micrograms, Table VIII
  Average CPM: 389,388 CPM
  CPM: 188,378 CPM and 590,398 CPM
[1]; 0.5 micrograms, Table VIII
  Average CPM: 161,570 CPM
  CPM: 116,590 CPM and 206,550 CPM
[1]; 1 microgram, Table VIII
  Average CPM: 153,363 CPM
  CPM: 124,996 CPM and 181,730 CPM
[1]; 2 micrograms, Table VIII
  Average CPM: 94,199 CPM
  CPM: 96,562 CPM and 91,836 CPM
[1]; 5 micrograms, Table VIII
  Average CPM: 90,273 CPM
  CPM: 86,850 CPM and 93,696 CPM
[1]; 10 micrograms, Table VIII
  Average CPM: 146,588 CPM
  CPM: 178,026 CPM and 115,150 CPM
[1]; 0.5 h, 0.05 micrograms, Table VIII
  inhibition at 50 ng: 76.7%
[1]; 0.5 h, 0.1 micrograms, Table VIII
  inhibition at 0.0001 mg: 52.3%
[1]; 0.5 h, 0.5 micrograms, Table VIII
  inhibition at 0.0005 mg: 80.2%
[1]; 0.5 h, 1 microgram, Table VIII
  inhibition at 0.001 mg: 81.2%
[1]; 0.5 h, 2 micrograms, Table VIII
  inhibition at 0.002 mg: 88.5%
[1]; 0.5 h, 5 micrograms, Table VIII
  inhibition at 0.005 mg: 88.9%
[1]; 0.5 h, 10 micrograms, Table VIII, read-out: Average % Inhibition
  inhibition at 0.01 mg: 82%
Friend Virus; 1 microgram
  Average % Inhibition: 18.4%
  Average Spleen Weight: 0.8210
  Actual Spleen Weight: 0.9291 and 0.8017 and 0.7323
Friend Virus; 10 micrograms
  Average % Inhibition: 9.2%
  Average Spleen Weight: 0.8930
  Actual Spleen Weight: 0.8387 and 0.8529 and 0.9874
Friend Virus; 50 micrograms
  Average % Inhibition: 3.2%
  Average Spleen Weight: 0.9407
  Actual Spleen Weight: 0.9012 and 0.9969 and 0.9241
Friend Virus; 150 micrograms
  Average % Inhibition: 18.6%
  Average Spleen Weight: 0.8187
  Actual Spleen Weight: 0.7921 and 0.8013 and 0.8626
Friend Leukemia Virus [2]
  EC50: > 255 µM

## CC(=O)Oc1cc(C)c2c3c(C)cc(OC(C)=O)c4c(=O)c5c(OC(C)=O)cc(OC(C)=O)c6c7c(OC(C)=O)cc(OC(C)=O)c8c(=O)c1c2c(c87)c(c43)c56 [HHA, Hypericin hexaacetate]
Retroviruses (virions)
  EC50: 12.9 µM
[1]; 0.05 micrograms, Table VI
  Average CPM: 466,981 CPM
  CPM: 441,410 CPM and 492,552 CPM
[1]; 0.1 micrograms, Table VI
  Average CPM: 202,454 CPM
  Average percent inhibition: 54.8%
  CPM: 208,882 CPM and 196,026 CPM
[1]; 0.5 micrograms, Table VI
  Average CPM: 501,386 CPM
  CPM: 518,336 CPM and 484,356 CPM
[1]; 1 microgram, Table VI
  Average CPM: 451,634 CPM
  CPM: 401,306 CPM and 501,962 CPM
[1]; 5 micrograms, Table VI
  Average CPM: 205,891 CPM
  Average percent inhibition: 54.1%
  CPM: 221,098 CPM and 190,604 CPM
[1]; 10 micrograms, Table VI
  Average CPM: 91,440 CPM
  Average percent inhibition: 79.6%
  CPM: 96,654 CPM and 86,226 CPM
[1]; 50 micrograms, Table VI
  Average CPM: 5,305 CPM
  Average percent inhibition: 98.8%
  CPM: 5,236 CPM and 5,374 CPM
[1]; 100 micrograms, Table VI
  Average CPM: 2,545 CPM
  Average percent inhibition: 99.4%
  CPM: 2,750 CPM and 2,340 CPM
[1]; Example 4
  inhibition of RadLV reverse transcriptase activity: about as active a protohypericin in inhibiting the RadLV reverse transcriptase activity
Friend Leukemia Virus [2]
  EC50: > 199 µM

## O=C1c2ccccc2C(=O)c2cc(CO)ccc21 [Compound 35, 2-(hydroxymethyl)-anthraquinone]
Retroviruses (virions)
  EC50: > 41 µM
Friend Leukemia Virus [3]; Mus musculus, ip, read-out: Average Perdosage % Inhibition, dose 2 × 100 (micrograms) i.p.
  inhibition in vivo at 0.1 mg: 75%
Friend Leukemia Virus [3]; Mus musculus, ip, read-out: Average Perdosage % Inhibition, dose 50 (micrograms) i.p.
  inhibition in vivo at 0.05 mg: 62%
Friend Leukemia Virus [3]; Mus musculus, ip, read-out: Average Perdosage % Inhibition, dose 100 (micrograms) i.p.
  inhibition in vivo at 0.1 mg: 64%
Friend Leukemia Virus [3]; Mus musculus, ip, read-out: Average Perdosage % Inhibition, dose 200 (micrograms) i.p.
  inhibition in vivo at 0.2 mg: 77%
Friend Leukemia Virus [3]; dose 2 × 100 (micrograms) i.p.
  Average Spleen Weight: 0.6575
Friend Leukemia Virus [3]; dose 50 (micrograms) i.p.
  Average Spleen Weight: 0.8921
Friend Leukemia Virus [3]; dose 100 (micrograms) i.p.
  Average Spleen Weight: 0.8615
Friend Leukemia Virus [3]; dose 200 (micrograms) i.p.
  Average Spleen Weight: 0.6086
Friend Leukemia Virus [3]; pooled over 50, 100, 200, 2 × 100 micrograms
  Pooled Average % Inhibition: 70%
Friend Leukemia Virus [2]
  EC50: 145 µM
